Measurements taken from ChEMBL document CHEMBL3885861, “Open TG-GATES”.

Organism: Rattus norvegicus
Experiment: Open TG-GATES - Regimen: Daily Repeat
Assay type: toxicity, organism-based, Sprague-Dawley
Parameters: regimen Daily Repeat, gender Male, age 6 weeks
Settings: in vivo, iv, route intravenous injection; for APTT / Bas / Eos / Fbg / Hb / Ht / Lym / MCHC / MCV / Mono / Neu / PT / Plat / RBC / Ret / WBC / MCH: tissue Blood; for KIDNEY_L / KIDNEY_R / KIDNEY_TOTAL: tissue Kidney; for LIVER: tissue Liver
[1] = 0 mg/kg, 72 h, dose level Control, time 3 day
[2] = 0 mg/kg, 72 h, tissue Plasma, dose level Control, time 3 day
[3] = 0 mg/kg, […], dose level Control, time 7 day
[4] = 0 mg/kg, […], dose level Control, time 14 day
[5] = 0 mg/kg, […], dose level Control, time 28 day
[6] = 0 mg/kg, […], tissue Plasma, dose level Control, time 7 day
[7] = 0 mg/kg, […], tissue Plasma, dose level Control, time 14 day
[8] = 0 mg/kg, […], tissue Plasma, dose level Control, time 28 day
[9] = 1 mg/kg, 72 h, dose level Low, time 3 day
[10] = 1 mg/kg, 72 h, tissue Plasma, dose level Low, time 3 day
[11] = 1 mg/kg, […], dose level Low, time 7 day
[12] = 1 mg/kg, […], dose level Low, time 14 day
[13] = 1 mg/kg, […], dose level Low, time 28 day
[14] = 1 mg/kg, […], tissue Plasma, dose level Low, time 7 day
[15] = 1 mg/kg, […], tissue Plasma, dose level Low, time 14 day
[16] = 1 mg/kg, […], tissue Plasma, dose level Low, time 28 day

Sequence: CARBOPLATIN
- TERMINAL_BW [1]: 221.4 g
- APTT [1]: 23.3 s
- Bas [1]: 0%
- Eos [1]: 0.8%
- Fbg [1]: 298.8 mg/dL
- Hb [1]: 13 g/dL
- Ht [1]: 40.2%
- Lym [1]: 80.4%
- MCHC [1]: 32.2%
- MCV [1]: 63.6 fL
- Mono [1]: 2.6%
- Neu [1]: 15.4%
- PT [1]: 16.2 s
- Plat [1]: 127.8 x10_4/uL
- RBC [1]: 633 x10_4/ul
- Ret [1]: 5.4%
- WBC [1]: 112.5 x10_2/uL
- KIDNEY_L [1]: 1 g
- KIDNEY_R [1]: 1 g
- KIDNEY_TOTAL [1]: 2 g
- ALP [2]: 1505 IU/L
- ALT [2]: 38.6 IU/L
- AST [2]: 67.6 IU/L
- BUN [2]: 18 mg/dL
- CRE [2]: 0.2 mg/dL
- DBIL [2]: 0 mg/dL
- GLC [2]: 182.4 mg/dL
- IP [2]: 7.3 mg/dL
- K [2]: 4.6 meq/L
- LDH [2]: 206.4 IU/L
- PL [2]: 150 mg/dL
- RALB [2]: 3 g/dL
- TBIL [2]: 0.004 mg/dL
- TC [2]: 78.2 mg/dL
- TG [2]: 103 mg/dL
- TP [2]: 5.4 g/dL
- gamma-GTP [2]: 1.6 IU/L
- TERMINAL_BW [3]: 254.4 g
- TERMINAL_BW [4]: 298 g
- TERMINAL_BW [5]: 364.6 g
- APTT [3]: 23.5 s
- Bas [3]: 0%
- Eos [3]: 0.8%
- Fbg [3]: 312.2 mg/dL
- Ht [3]: 40.5%
- Lym [3]: 81.4%
- MCH [3]: 20.6 pg
- MCHC [3]: 32.4%
- MCV [3]: 63.6 fL
- Mono [3]: 2.4%
- Plat [3]: 123.2 x10_4/uL
- RBC [3]: 638.2 x10_4/ul
- Ret [3]: 4.9%
- WBC [3]: 120.2 x10_2/uL
- APTT [4]: 25.2 s
- Bas [4]: 0%
- Eos [4]: 1%
- Fbg [4]: 296.8 mg/dL
- Hb [4]: 13.6 g/dL
- Ht [4]: 40.5%
- Lym [4]: 80.8%
- MCHC [4]: 33.6%
- MCV [4]: 60.3 fL
- Mono [4]: 3.4%
- Plat [4]: 128.4 x10_4/uL
- RBC [4]: 672.4 x10_4/ul
- Ret [4]: 3.6%
- WBC [4]: 136.2 x10_2/uL
- APTT [5]: 24.2 s
- Bas [5]: 0%
- Eos [5]: 1%
- Fbg [5]: 308.6 mg/dL
- Ht [5]: 42.1%
- Lym [5]: 82.2%
- MCH [5]: 19.9 pg
- MCV [5]: 56.5 fL
- Mono [5]: 2.6%
- PT [5]: 16 s
- Plat [5]: 108.9 x10_4/uL
- RBC [5]: 746.2 x10_4/ul
- Ret [5]: 2.1%
- WBC [5]: 150.1 x10_2/uL
- KIDNEY_L [3]: 1.1 g
- KIDNEY_R [3]: 1.2 g
- KIDNEY_TOTAL [3]: 2.3 g
- KIDNEY_L [4]: 1.2 g
- KIDNEY_R [4]: 1.2 g
- KIDNEY_TOTAL [4]: 2.4 g
- KIDNEY_L [5]: 1.3 g
- KIDNEY_R [5]: 1.3 g
- KIDNEY_TOTAL [5]: 2.7 g
- LIVER [4]: 13.1 g
- LIVER [5]: 14.9 g
- ALP [6]: 1596.2 IU/L
- ALT [6]: 39 IU/L
- AST [6]: 70.6 IU/L
- BUN [6]: 17.6 mg/dL
- CRE [6]: 0.2 mg/dL
- DBIL [6]: 0 mg/dL
- GLC [6]: 182.6 mg/dL
- IP [6]: 7.8 mg/dL
- K [6]: 4.7 meq/L
- LDH [6]: 172.8 IU/L
- PL [6]: 144 mg/dL
- RALB [6]: 3.1 g/dL
- TBIL [6]: 0.002 mg/dL
- TC [6]: 74.6 mg/dL
- TG [6]: 87.8 mg/dL
- TP [6]: 5.6 g/dL
- gamma-GTP [6]: 2.2 IU/L
- ALP [7]: 1124 IU/L
- ALT [7]: 38.2 IU/L
- AST [7]: 68.8 IU/L
- BUN [7]: 17.2 mg/dL
- CRE [7]: 0.2 mg/dL
- DBIL [7]: 0 mg/dL
- GLC [7]: 203 mg/dL
- IP [7]: 6.9 mg/dL
- K [7]: 4.3 meq/L
- LDH [7]: 155.6 IU/L
- Na [7]: 140.4 meq/L
- PL [7]: 146 mg/dL
- RALB [7]: 3 g/dL
- TBIL [7]: 0.008 mg/dL
- TC [7]: 73.8 mg/dL
- TG [7]: 110.8 mg/dL
- TP [7]: 5.7 g/dL
- gamma-GTP [7]: 3.6 IU/L
- ALP [8]: 1264.8 IU/L
- ALT [8]: 43 IU/L
- AST [8]: 76.2 IU/L
- BUN [8]: 17.6 mg/dL
- CRE [8]: 0.2 mg/dL
- DBIL [8]: 0.002 mg/dL
- IP [8]: 7.1 mg/dL
- K [8]: 4.3 meq/L
- LDH [8]: 202 IU/L
- PL [8]: 138.6 mg/dL
- RALB [8]: 3 g/dL
- TBIL [8]: 0.01 mg/dL
- TC [8]: 67.2 mg/dL
- TG [8]: 113 mg/dL
- TP [8]: 6 g/dL
- gamma-GTP [8]: 2.2 IU/L
- TERMINAL_BW [9]: 215.8 g
- APTT [9]: 23.9 s
- Bas [9]: 0%
- Eos [9]: 0.8%
- Fbg [9]: 317.8 mg/dL
- Hb [9]: 13 g/dL
- Lym [9]: 83%
- MCHC [9]: 32.2%
- Mono [9]: 2.8%
- Neu [9]: 12.6%
- PT [9]: 16.2 s
- Plat [9]: 122.5 x10_4/uL
- RBC [9]: 647.8 x10_4/ul
- Ret [9]: 4.5%
- WBC [9]: 100.1 x10_2/uL
- KIDNEY_L [9]: 0.9 g
- KIDNEY_R [9]: 0.9 g
- KIDNEY_TOTAL [9]: 1.9 g
- LIVER [9]: 9.5 g
- ALP [10]: 1749.2 IU/L
- ALT [10]: 44.2 IU/L
- AST [10]: 72.8 IU/L
- BUN [10]: 16.6 mg/dL
- CRE [10]: 0.2 mg/dL
- DBIL [10]: 0 mg/dL
- GLC [10]: 175.8 mg/dL
- IP [10]: 6.9 mg/dL
- K [10]: 4.6 meq/L
- LDH [10]: 189.6 IU/L
- PL [10]: 147.8 mg/dL
- RALB [10]: 3.1 g/dL
- TBIL [10]: 0.004 mg/dL
- TC [10]: 76.2 mg/dL
- TG [10]: 106.8 mg/dL
- TP [10]: 5.5 g/dL
- gamma-GTP [10]: 1.4 IU/L
- TERMINAL_BW [11]: 248.6 g
- TERMINAL_BW [12]: 299.2 g
- TERMINAL_BW [13]: 348.7 g
- APTT [11]: 22.2 s
- Bas [11]: 0%
- Eos [11]: 1%
- Fbg [11]: 304 mg/dL
- Ht [11]: 40.7%
- Lym [11]: 80.8%
- MCH [11]: 19.9 pg
- MCHC [11]: 32.4%
- Mono [11]: 2.4%
- Plat [11]: 136.3 x10_4/uL
- RBC [11]: 662 x10_4/ul
- Ret [11]: 4.6%
- WBC [11]: 108.6 x10_2/uL
- APTT [12]: 26.4 s
- Bas [12]: 0%
- Eos [12]: 1%
- Fbg [12]: 302.2 mg/dL
- Hb [12]: 14.1 g/dL
- Ht [12]: 42.1%
- Lym [12]: 83.2%
- MCHC [12]: 33.4%
- MCV [12]: 60.3 fL
- Mono [12]: 2.5%
- Neu [12]: 12%
- Plat [12]: 111 x10_4/uL
- RBC [12]: 698.8 x10_4/ul
- Ret [12]: 3.1%
- WBC [12]: 122.2 x10_2/uL
- APTT [13]: 24.7 s
- Bas [13]: 0%
- Eos [13]: 1.2%
- Fbg [13]: 311.6 mg/dL
- Ht [13]: 42.3%
- Lym [13]: 83.2%
- MCH [13]: 19.1 pg
- MCHC [13]: 35.1%
- MCV [13]: 54.4 fL
- Mono [13]: 2.6%
- Neu [13]: 12%
- Plat [13]: 105.6 x10_4/uL
- RBC [13]: 777.8 x10_4/ul
- Ret [13]: 1.7%
- WBC [13]: 94.6 x10_2/uL
- KIDNEY_L [11]: 1 g
- KIDNEY_R [11]: 1 g
- KIDNEY_TOTAL [11]: 2 g
- KIDNEY_L [12]: 1.2 g
- KIDNEY_R [12]: 1.2 g
- KIDNEY_TOTAL [12]: 2.4 g
- KIDNEY_L [13]: 1.3 g
- KIDNEY_R [13]: 1.3 g
- KIDNEY_TOTAL [13]: 2.6 g
- LIVER [11]: 11.2 g
- LIVER [13]: 13.5 g
- ALP [14]: 1760.4 IU/L
- ALT [14]: 40.6 IU/L
- AST [14]: 75 IU/L
- BUN [14]: 16.4 mg/dL
- CRE [14]: 0.2 mg/dL
- Ca [14]: 11 mg/dL
- DBIL [14]: 0 mg/dL
- IP [14]: 7.5 mg/dL
- K [14]: 4.6 meq/L
- LDH [14]: 138.8 IU/L
- Na [14]: 140.2 meq/L
- PL [14]: 138.2 mg/dL
- RALB [14]: 3 g/dL
- TBIL [14]: 0.008 mg/dL
- TG [14]: 94.6 mg/dL
- TP [14]: 5.6 g/dL
- gamma-GTP [14]: 2.2 IU/L
- ALP [15]: 1603 IU/L
- ALT [15]: 38 IU/L
- AST [15]: 80.4 IU/L
- BUN [15]: 18 mg/dL
- CRE [15]: 0.2 mg/dL
- DBIL [15]: 0.004 mg/dL
- GLC [15]: 171.6 mg/dL
- IP [15]: 6.4 mg/dL
- K [15]: 4.5 meq/L
- LDH [15]: 160 IU/L
- PL [15]: 130.2 mg/dL
- RALB [15]: 3.1 g/dL
- TBIL [15]: 0.01 mg/dL
- TC [15]: 64.8 mg/dL
- TG [15]: 101.6 mg/dL
- TP [15]: 5.9 g/dL
- gamma-GTP [15]: 2.6 IU/L
- ALP [16]: 1005 IU/L
- ALT [16]: 40.4 IU/L
- CRE [16]: 0.2 mg/dL
- DBIL [16]: 0 mg/dL
- GLC [16]: 181 mg/dL
- IP [16]: 6 mg/dL
- K [16]: 4.2 meq/L
- LDH [16]: 140.2 IU/L
- PL [16]: 133.8 mg/dL
- RALB [16]: 3 g/dL
- TBIL [16]: 0.006 mg/dL
- TC [16]: 68.8 mg/dL
- TG [16]: 102.2 mg/dL
- TP [16]: 6 g/dL
- gamma-GTP [16]: 2.4 IU/L
